Consider two molecules from patent EP4467141A1, “PYRAZOLO-QUINOLINES AS SELECTIVE INHIBITORS OF GENOTOXIC STRESS-INDUCED IKK/NF- KB PATHWAYS FOR CANCER THERAPY” (Max-Delbrück-Centrum für Molekulare Medizin in der …, priority 2023, dated 2024).

Common to all, as to test: Kinase panel study
What all share (type): biochemical
What all share (details): read-out: Percentage of inhibition; for inhibition at 1 µM: 1000nM; for inhibition at 10 µM: 10000nM

Test [1] deals with T1, CSNK2A1 (CK2 alpha 1) (Homo sapiens, UniProt P68400).
T1 construct: purchased Thermo Fisher Scientific
In short, it runs like this:
(§1)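 Kinase inhibition was determined by a contract provider in cell-free ZLyte or Adapta assays. Results are expressed as % inhibition at 10 or 1 µM.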

Test [2] addresses T2, YES1 (Homo sapiens, UniProt P07947).
T2 construct: purchased Thermo Fisher Scientific
The method in brief:
as §1

Test [3] has as its target T3, CSNK1G3 (CK1 gamma 3) (Homo sapiens, UniProt Q9Y6M4).
T3 construct: purchased Thermo Fisher Scientific
In short, it runs like this: as §1

The target of test [4] is T4, NUAK1 (ARK5) (Homo sapiens, UniProt O60285).
T4 construct: purchased Thermo Fisher Scientific
T4 sequence (O60285 1-661): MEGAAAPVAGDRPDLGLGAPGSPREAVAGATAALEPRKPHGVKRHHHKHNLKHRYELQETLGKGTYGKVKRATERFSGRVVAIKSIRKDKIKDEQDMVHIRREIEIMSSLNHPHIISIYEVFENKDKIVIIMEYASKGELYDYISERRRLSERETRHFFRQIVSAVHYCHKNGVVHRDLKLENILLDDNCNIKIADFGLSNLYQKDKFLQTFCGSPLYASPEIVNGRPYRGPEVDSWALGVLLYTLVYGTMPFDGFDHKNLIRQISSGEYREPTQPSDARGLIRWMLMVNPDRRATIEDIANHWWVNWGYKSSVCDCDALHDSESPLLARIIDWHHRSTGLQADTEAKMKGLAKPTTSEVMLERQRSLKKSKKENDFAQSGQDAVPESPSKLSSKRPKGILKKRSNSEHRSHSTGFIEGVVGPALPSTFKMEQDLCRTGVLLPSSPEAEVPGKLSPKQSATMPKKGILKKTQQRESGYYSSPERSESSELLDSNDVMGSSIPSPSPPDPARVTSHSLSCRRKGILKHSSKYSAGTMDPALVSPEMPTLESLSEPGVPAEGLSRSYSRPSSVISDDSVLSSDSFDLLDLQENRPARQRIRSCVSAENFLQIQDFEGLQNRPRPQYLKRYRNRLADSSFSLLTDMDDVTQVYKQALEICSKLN
In short, it runs like this:
as §1

Test [5] deals with T5, ABL1 E255K (Homo sapiens, UniProt P00519, E255K).
T5 construct: purchased Thermo Fisher Scientific
The method in brief: as §1

Test [6] has as its target T6, NEK9 (Homo sapiens, UniProt Q8TD19).
T6 construct: purchased Thermo Fisher Scientific
T6 sequence (Q8TD19 1-979): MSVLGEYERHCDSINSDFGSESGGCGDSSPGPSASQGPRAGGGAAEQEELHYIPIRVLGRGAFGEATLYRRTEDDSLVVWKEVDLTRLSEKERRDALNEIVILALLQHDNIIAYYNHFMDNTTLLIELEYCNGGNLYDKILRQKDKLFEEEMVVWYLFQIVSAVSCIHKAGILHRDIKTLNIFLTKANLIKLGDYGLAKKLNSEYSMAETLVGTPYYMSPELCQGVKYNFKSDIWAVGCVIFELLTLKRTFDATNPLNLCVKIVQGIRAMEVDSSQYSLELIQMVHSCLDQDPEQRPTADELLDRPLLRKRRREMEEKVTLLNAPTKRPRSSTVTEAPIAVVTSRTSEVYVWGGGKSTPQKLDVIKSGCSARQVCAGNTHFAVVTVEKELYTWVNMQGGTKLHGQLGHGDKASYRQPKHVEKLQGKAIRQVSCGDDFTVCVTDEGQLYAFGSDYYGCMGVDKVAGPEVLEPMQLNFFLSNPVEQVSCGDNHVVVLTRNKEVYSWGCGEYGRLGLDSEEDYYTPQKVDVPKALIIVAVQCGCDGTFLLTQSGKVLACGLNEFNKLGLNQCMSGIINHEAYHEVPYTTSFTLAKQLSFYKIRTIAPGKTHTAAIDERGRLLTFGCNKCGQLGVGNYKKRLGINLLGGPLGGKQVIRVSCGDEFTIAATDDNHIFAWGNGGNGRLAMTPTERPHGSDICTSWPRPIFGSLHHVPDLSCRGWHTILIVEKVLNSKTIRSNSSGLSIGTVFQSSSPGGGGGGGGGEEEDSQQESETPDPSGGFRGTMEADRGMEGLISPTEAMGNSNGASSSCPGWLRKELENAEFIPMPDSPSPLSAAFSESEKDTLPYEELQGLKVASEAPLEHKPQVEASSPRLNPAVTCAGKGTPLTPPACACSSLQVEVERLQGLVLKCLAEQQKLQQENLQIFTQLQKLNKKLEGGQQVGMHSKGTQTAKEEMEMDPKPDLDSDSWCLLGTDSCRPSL
The method in brief:
as §1

Test [7] deals with T7, RET (Homo sapiens, UniProt P07949).
T7 construct: purchased Thermo Fisher Scientific
The method in brief: as §1

T3 sequence (Q9Y6M4 whole entry): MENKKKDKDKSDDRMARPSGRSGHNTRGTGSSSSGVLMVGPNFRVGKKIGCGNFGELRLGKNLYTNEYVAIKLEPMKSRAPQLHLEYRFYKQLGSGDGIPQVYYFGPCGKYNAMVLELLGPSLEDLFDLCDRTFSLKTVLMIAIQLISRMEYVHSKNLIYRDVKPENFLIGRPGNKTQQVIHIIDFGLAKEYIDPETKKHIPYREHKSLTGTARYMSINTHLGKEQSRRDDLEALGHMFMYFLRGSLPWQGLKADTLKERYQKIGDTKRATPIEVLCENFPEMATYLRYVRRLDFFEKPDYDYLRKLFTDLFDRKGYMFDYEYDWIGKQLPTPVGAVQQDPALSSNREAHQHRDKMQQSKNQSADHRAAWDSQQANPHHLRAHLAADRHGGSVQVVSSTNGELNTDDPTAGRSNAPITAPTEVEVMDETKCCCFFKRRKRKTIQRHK
T1 sequence (P68400 whole entry): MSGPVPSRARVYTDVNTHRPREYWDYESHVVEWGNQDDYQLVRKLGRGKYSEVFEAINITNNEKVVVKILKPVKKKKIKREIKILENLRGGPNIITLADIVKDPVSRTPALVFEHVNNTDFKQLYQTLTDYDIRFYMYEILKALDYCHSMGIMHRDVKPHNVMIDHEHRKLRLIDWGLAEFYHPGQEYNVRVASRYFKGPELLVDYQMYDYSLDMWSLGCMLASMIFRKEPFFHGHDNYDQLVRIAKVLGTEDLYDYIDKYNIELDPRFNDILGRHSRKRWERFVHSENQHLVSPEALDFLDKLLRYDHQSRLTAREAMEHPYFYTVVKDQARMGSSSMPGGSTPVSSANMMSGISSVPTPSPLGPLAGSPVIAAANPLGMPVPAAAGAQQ
T2 sequence (P07947 whole entry): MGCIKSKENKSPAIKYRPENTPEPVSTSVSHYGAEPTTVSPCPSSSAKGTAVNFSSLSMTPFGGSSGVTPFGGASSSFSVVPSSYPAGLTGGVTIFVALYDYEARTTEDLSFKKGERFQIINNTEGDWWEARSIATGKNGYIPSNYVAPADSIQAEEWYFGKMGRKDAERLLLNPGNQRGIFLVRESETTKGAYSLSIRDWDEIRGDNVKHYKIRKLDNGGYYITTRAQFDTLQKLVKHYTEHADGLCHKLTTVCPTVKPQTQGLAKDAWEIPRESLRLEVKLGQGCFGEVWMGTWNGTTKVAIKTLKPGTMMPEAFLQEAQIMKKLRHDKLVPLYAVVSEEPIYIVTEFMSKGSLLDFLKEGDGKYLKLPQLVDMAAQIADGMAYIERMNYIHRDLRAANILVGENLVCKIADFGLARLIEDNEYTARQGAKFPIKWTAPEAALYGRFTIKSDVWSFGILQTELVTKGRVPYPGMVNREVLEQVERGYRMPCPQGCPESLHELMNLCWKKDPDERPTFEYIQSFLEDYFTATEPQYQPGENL
T7 sequence (P07949 29-1114): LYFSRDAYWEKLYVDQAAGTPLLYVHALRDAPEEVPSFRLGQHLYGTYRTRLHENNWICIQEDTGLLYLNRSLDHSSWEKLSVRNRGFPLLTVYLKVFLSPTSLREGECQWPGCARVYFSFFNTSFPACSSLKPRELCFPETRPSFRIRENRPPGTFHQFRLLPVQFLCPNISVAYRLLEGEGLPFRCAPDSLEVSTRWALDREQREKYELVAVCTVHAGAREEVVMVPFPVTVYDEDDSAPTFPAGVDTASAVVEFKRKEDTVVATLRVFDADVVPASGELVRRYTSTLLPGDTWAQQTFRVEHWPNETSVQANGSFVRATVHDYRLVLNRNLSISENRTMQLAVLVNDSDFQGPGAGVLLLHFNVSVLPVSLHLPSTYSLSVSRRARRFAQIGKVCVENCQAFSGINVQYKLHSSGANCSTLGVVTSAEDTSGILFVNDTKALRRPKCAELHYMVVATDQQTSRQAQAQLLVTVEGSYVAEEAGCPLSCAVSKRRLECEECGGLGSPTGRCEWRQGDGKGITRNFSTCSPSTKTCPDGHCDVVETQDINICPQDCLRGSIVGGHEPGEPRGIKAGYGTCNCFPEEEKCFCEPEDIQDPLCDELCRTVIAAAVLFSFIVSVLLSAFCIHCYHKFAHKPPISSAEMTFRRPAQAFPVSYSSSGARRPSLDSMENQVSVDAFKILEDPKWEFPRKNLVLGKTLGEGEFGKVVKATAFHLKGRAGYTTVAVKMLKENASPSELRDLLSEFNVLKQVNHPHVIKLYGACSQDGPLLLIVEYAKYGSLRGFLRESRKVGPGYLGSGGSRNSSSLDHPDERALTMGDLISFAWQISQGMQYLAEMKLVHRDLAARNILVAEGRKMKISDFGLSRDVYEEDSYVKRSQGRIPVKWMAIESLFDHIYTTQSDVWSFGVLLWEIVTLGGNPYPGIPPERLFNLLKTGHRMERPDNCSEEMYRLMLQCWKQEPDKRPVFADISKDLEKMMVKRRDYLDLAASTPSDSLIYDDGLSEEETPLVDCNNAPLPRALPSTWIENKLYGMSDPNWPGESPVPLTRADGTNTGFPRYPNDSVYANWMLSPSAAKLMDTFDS
T5 sequence (P00519 whole entry E255K): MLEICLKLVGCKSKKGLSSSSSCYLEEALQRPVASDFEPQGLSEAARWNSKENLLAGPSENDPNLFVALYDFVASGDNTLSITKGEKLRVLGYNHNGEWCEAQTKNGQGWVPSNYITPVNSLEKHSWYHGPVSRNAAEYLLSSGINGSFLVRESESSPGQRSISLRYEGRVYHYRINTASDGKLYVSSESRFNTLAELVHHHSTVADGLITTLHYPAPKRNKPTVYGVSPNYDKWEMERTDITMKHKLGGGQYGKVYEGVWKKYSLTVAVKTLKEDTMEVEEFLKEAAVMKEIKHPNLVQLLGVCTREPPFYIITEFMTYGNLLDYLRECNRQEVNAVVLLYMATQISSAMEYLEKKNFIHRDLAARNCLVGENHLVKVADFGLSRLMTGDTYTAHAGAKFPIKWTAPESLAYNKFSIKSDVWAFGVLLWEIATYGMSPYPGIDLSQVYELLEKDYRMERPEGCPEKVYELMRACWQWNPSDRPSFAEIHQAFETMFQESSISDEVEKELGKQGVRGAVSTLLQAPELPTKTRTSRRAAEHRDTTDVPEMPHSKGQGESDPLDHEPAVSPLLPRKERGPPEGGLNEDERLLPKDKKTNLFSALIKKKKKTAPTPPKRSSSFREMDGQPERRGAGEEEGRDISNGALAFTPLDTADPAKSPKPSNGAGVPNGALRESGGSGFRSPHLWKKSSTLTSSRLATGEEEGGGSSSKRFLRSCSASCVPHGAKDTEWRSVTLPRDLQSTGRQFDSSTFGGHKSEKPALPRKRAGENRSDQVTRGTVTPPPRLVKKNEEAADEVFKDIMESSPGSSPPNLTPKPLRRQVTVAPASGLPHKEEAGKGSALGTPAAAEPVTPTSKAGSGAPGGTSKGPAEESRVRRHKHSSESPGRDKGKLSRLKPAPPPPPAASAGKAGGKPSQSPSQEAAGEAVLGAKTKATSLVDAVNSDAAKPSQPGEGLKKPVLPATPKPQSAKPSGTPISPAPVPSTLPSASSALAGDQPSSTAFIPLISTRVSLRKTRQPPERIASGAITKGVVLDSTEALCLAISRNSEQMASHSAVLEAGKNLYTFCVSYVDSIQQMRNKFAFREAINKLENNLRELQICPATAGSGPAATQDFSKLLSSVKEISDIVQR

Regarding `COc1ccc2c(c1OC)c(=O)n1c3ccc(O)cc3c3ccnc2c31` [MW01, 5-Hydroxy-10,11-dimethoxy-9H-benzo[c]indolo[3,2,1-ij][1,5]naphthyridin-9-one], the inhibition at 1 µM in test [1] is 9%; in test [2], 17%; in test [3], 4%; in test [4], 48%; in test [5] it was 7%; in test [6], 4%. In addition, the inhibition at 1 µM in test [7] came to 15%. Further, the inhibition at 10 µM in test [1] is 18%; in test [2], 16%; in test [3], 12%; in test [4] it was 66%; in test [5] it was 11%; in test [6], 9%. The inhibition at 10 µM in test [7] is 34%.
Consider `COc1ccc2cc3c(N)nn(C(=O)c4cccc(N(C)C)c4)c3nc2c1` [MW05, (3-Amino-7-methoxypyrazolo[3,4-b]quinolin-1-yl)-[3-(dimethylamino)phenyl]methanone], for which the inhibition at 1 µM amounted to 9% in test [1]; 15% in test [2]; 1% in test [3]; 6% in test [4]; 6% in test [5]; 6% in test [6]. Also, the inhibition at 1 µM in test [7] was 9%. Further, the inhibition at 10 µM in test [1] is 5%; in test [2], 20%; in test [3] it was 9%; in test [4], 11%; in test [5], 5%; in test [6], 5%. Moreover, the inhibition at 10 µM in test [7] was found to be 12%.

What is called inhibition is the share of the control response that was lost under treatment.
